{"source": "patent US20230026277A1", "about": "“COMPOSITION FOR PREVENTION, ALLEVIATION, OR TREATMENT OF RESPIRATORY DISEASE” (MICROX CO., LTD., priority 2019, published 2023)", "type_in_all_cases": "in vivo", "key": {"IL-4, IL-5, and IL-13": {"tested_on": "IL-4, IL-5, and IL-13", "test": "Cytokines in bronchoalveolar lavage fluid by ELISA, asthma-induced mice", "procedure": "Eight-week-old female […] mice (Orient Bio Korea Inc., Korea) having no certain pathogen were accommodated in an aseptic laminar-flow cabinet, and bred by supplying a standard solid feed ad libitum. When the following experiment was performed, the mice were made to correspond to 7- to 8-weeks old, and all laboratory animals were managed according to the protocol approved by the Institutional Animal Care and Use Committee of the Chonbuk National University Medical School.\n(§1) Also, on days 21 and 28 from the experimental starting date, the mice were put into a plastic box (Plexiglas (Rohm & Haas, Philadelphia, Pa.) exposure chamber; 24.5 cm×40.5 cm×15.0 cm), and 1.5% ovalbumin was evaporated using an ultrasonic nebulizer (NE-U12; output 0.8 mL/min; Omron, Japan), and injected into the box for 30 minutes so that the mice inhaled the evaporated ovalbumin (secondary challenge).\nAfter the mice were anesthetized, a thin tube was inserted into the airway, and a piston process was repeated using a syringe filled with 0.2 mL of physiological saline to obtain a bronchoalveolar lavage fluid. The bronchoalveolar lavage fluid obtained through this piston process was stored at −70° C. when it was not immediately used in the experiments.\n(§2) A level of cytokines in the bronchoalveolar lavage fluid obtained in Experimental Method 2 was measured using an ELISA kit. Here, ELISA kits specifically manufactured for TNF-α, IL-4, IL-5, and IL-13 were used.\nPreparation Example 3 (α,δ-NA-L-G) or α,δ N-acetyl-D-glutamine was orally administered to the asthma-induced mice of Experimental Method 1 at a concentration of 100, 200, 400 or 800 μg/kg/day 30 minutes before a secondary airway challenge, and levels of IL-4, IL-5, and IL-13 were measured through the method described above in Experimental Method 4 24 hours after the secondary challenge. The results are shown in A and B of FIG. 4."}, "MKP-1 protein": {"tested_on": "MKP-1 protein", "test": "Western blot of MKP-1 protein in lung tissue of asthma-induced mice", "procedure": "as §1\n(§3) A tissue was extracted from each of the mice manufactured in Experimental Method 1, and finely ground to a cell level. Thereafter, the cells were lysed in a cell lysis buffer containing a protease inhibitor to obtain a cell lysate. The cell lysate was centrifuged to obtain protein. Then, an equivalent amount of the proteins obtained from the cells were loaded on an SDS-PAGE gel and electrophoresed. The proteins present in the electrophoresed gel were transferred to a PVDF membrane. […] The PVDF membrane was washed three times with a TBS-T buffer, and visualized and quantified using an ECL Western blotting detection reagent. […]\nSmall interfering RNA (siRNA; hereinafter referred to as “MKP-1 siRNA”) against RNA encoding an MKP-1 protein, and control siRNA strands were purchased from SANTA CRUZ (USA). […] An effect of the MKP-1 siRNA interference was determined by measuring an expression level of the MKP-1 protein in the lung tissue through Western blot analysis. […]"}, "CK2α protein": {"tested_on": "CK2α protein", "test": "Western blot of CK2α protein in lung of asthma-induced mice", "procedure": "as §1\nas §3, with “membrane. The PVDF membrane was washed, and added to a blocking buffer in which 5% skim milk was included in a TBS-T buffer, and incubated at room temperature. Then, the PVDF membrane was incubated at room temperature with an antibody diluted 1:1,000 in a TBS-T buffer containing 3% BSA.” for “membrane.”\n(§4) Specifically, the secondary challenge (ovalbumin injection) was performed according to the method described above in Experimental Method 1, and the lungs were extracted after an hour, and then measured according to the method described above in Experimental Method 7. […] Also, the level of TNF-α corresponding to an NK-κB-dependent cytokine was measured by ELISA according to the method described above in Experimental Method 4. […]\nThe secondary challenge (ovalbumin injection) was performed according to the method described above in Experimental Method 1, and the lungs were extracted after 1 or 2 hours, and then measured according to the method described above in Experimental Method 7. […]"}, "NF-κB and TNF-α": {"tested_on": "NF-κB and TNF-α", "test": "NF-κB (Western blot) and TNF-α (ELISA) in asthma-induced mice", "procedure": "as §1, §2\nA tissue was extracted from each of the mice manufactured in Experimental Method 1, and finely ground to a cell level. Thereafter, the cells were lysed in a cell lysis buffer containing a protease inhibitor to obtain a cell lysate. The cell lysate was centrifuged to obtain protein. Then, an equivalent amount of the proteins obtained from the cells were loaded on an SDS-PAGE gel and electrophoresed. The proteins present in the electrophoresed gel were transferred to a PVDF membrane. The PVDF membrane was washed, and added to a blocking buffer in which 5% skim milk was included in a TBS-T buffer, and incubated at room temperature. Then, the PVDF membrane was incubated at room temperature with an antibody diluted 1:1,000 in a TBS-T buffer containing 3% BSA. Then, the PVDF membrane was washed with a TBS-T buffer, and incubated at room temperature for an hour with a dilute solution containing HRP-bound IgG. The PVDF membrane was washed three times with a TBS-T buffer, and visualized and quantified using an ECL Western blotting detection reagent.\nHere, antibodies specific to elastin, caspase-3, collagen, MKP-1, p-cPLA, p-p38, NF-κB(p65), CK2α, GAPDH, or β-actin were used in the Western blot.\nSpecifically, the secondary challenge (ovalbumin injection) was performed according to the method described above in Experimental Method 1, and the lungs were extracted after an hour, and then measured according to the method described above in Experimental Method 7. The results are shown in A of FIG. 9. Also, the level of TNF-α corresponding to an NK-κB-dependent cytokine was measured by ELISA according to the method described above in Experimental Method 4. The results are shown in B of FIG. 9. […]\nas §4, with “The” for “Specifically, the”, “30 or 60 minutes,” for “an hour,”"}, "[1]": {"conditions": "400 μg/kg/day with siRNA specific to MKP-1, FIG. 9"}}}
{"smiles": "CC(=O)NC(=O)CC[C@H](NC(C)=O)C(=O)O", "note": "[Preparation Example 3, 2,5-diacetamido-5-oxopentanoic acid]", "values": [{"measurement": "levels of IL-4, IL-5, and IL-13", "setting": "IL-4, IL-5, and IL-13; asthma-induced mice, oral 200 μg/kg/day 30 minutes before secondary challenge, measured 24 hours after, FIG. 4A", "result": "remarkably inhibited"}, {"measurement": "expression levels of the cytokines", "setting": "IL-4, IL-5, and IL-13; experiment [5-6], together with siRNA specific to MKP-1, FIG. 13", "result": "increased"}, {"measurement": "expression levels of the cytokines (IL-4, IL-5, and IL-13)", "setting": "IL-4, IL-5, and IL-13; experiment [5-6], without MKP-1 siRNA, FIG. 13", "result": "decreased"}, {"measurement": "level of the MKP-1 protein", "setting": "MKP-1 protein; lung tissue, oral daily 200, 500 or 1,000 μg/kg/day, 10 and 30 minutes after secondary challenge, FIG. 7", "result": "more increased depending on the concentration"}, {"measurement": "level of the MKP-1 protein", "setting": "MKP-1 protein; with MKP-1 siRNA treatment, same conditions as [5-1], FIG. 8", "result": "did not increase"}, {"measurement": "effect for reducing the level of CK2α", "setting": "CK2α protein; [1]", "result": "not observed"}, {"measurement": "level of the CK2α protein", "setting": "CK2α protein; oral daily 400 μg/kg/day, lungs extracted an hour after secondary challenge, FIG. 9A", "result": "decreased"}, {"measurement": "effect for reducing the levels of NF-κB and TNF-α", "setting": "NF-κB and TNF-α; [1]", "result": "not observed"}, {"measurement": "levels of NF-κB and TNF-α", "setting": "NF-κB and TNF-α; oral daily 400 μg/kg/day, an hour after secondary challenge, FIG. 9A and B", "result": "decreased"}]}
